Series [1] has as its system humans. The conditions noted are these: cited from earlier work.
Series [2] deals with subjects with high HS. The series is described as follows: Human study: supplementation of serine. In kind it is in vivo. The procedure: 86 subjects with varying degrees of […] were recruited for studying the response of liver to the HS. Also, liver tissue samples from 12 morbidly obese subjects that underwent bariatric surgery were collected. The mRNA expression of the identified target genes was measured in liver of obese and healthy subjects. In order to show the effect of the serine on the liver, another six subjects were recruited and the subjects' characteristics before and after serine supplementation are presented in Table 3. Subjects included in the studies met all the criteria for NAFLD including exclusion of other chronic liver diseases such as viral hepatitis, risky alcohol consumption, metabolic disorders (e.g., hemochromatosis).
Magnetic resonance experiments were performed using three 1.5 T clinical imagers (1× Sonata and 2× Avanto, Siemens, Erlangen, Germany). Liver fat content was determined using proton magnetic resonance spectroscopy and subcutaneous abdominal and visceral fat was measured by magnetic resonance imaging (Adiels et al, 2006; Lundbom et al, 2011).
[…]
To identify the unique contribution of serine supplementation in decreasing HS, the effect of short-term dietary supplementation with serine on HS and fasting levels of plasma markers of liver functions was assessed in six subjects with high HS. Each patient received one oral dose of ˜20 g of L-serine (200 mg/kg) per day for 14 days.

The mark [3] stands for this setting: 200 mg/kg/day oral 14 days, six subjects.

With `CC(=O)N[C@@H](CS)C(=O)O` [NAC, N-acetyl-L-cysteine, reference compound], in series [1] (NAC), the “Daily dosage shown to be safe in humans” value was 4-6 grams.
As to `N[C@@H](CO)C(=O)O` [serine, L-serine], the “Doses studied in humans and shown to be safe” value in series [1] (serine, around 25-30 g/day) is “up to 400 mg/kg/day”. In addition, in series [2] (setting [3]), the “Plasma level of ALP after supplementation (change in words)” value is on record as “significantly decreased”, the “Plasma level of ALT after supplementation (change in words)” value is given as “significantly decreased” and the “Plasma level of AST after supplementation (change in words)” value was “significantly decreased”. In addition, the “Plasma ALT, response per subject” value in series [2] (200 mg/kg/day oral 14 days, six subjects, FIG. 5C panel H) is reported as “consistently decreased in all six subjects”. Moreover, the “Plasma AST, response per subject” value in series [2] (200 mg/kg/day oral 14 days, six subjects, FIG. 5C panel I) is given as “consistently decreased in all six subjects”. Moreover, in series [2] (200 mg/kg/day oral 14 days, six subjects, FIG. 5C panel J), the “Plasma ALP, response per subject” value is “decreased in five of the participating subjects”. In addition, in series [2] (200 mg/kg/day oral 14 days, six subjects, FIG. 5C panel K, no change in the remaining one subject), the “Plasma TGs, response per subject” value is listed as “decreased in five of the studied subjects”. In addition, in series [2] (200 mg/kg/day oral 14 days, six subjects, change in words), the “Plasma level of serine after supplementation” value is given as “significantly increased”. Also, in series [2] (NAFLD patients, proof-of-concept human study), the “Markers of liver function after supplementation” value was “significantly improved”. The “HDL cholesterol” value in series [2] (after serine, n = 6, 200 mg/kg/day oral 14 days, mean ± SD, baseline 1.00 ± 0.21, P 0.30) is given as 1.02 ± 0.18 mmol/L. Further, the HOMA-IR in series [2] (after serine, n = 6, 200 mg/kg/day oral 14 days, mean ± SD, baseline 2.15 ± 1.85, P 0.18) stood at 1.54 ± 1.49. Moreover, the “LDL cholesterol” value in series [2] (after serine, n = 6, 200 mg/kg/day oral 14 days, mean ± SD, baseline 3.68 ± 0.80, P 0.50) came out at 3.85 ± 0.94 mmol/L. Besides, in series [2] (after serine, n = 6, 200 mg/kg/day oral 14 days, mean ± SD, baseline 6.23 ± 1.49, P 0.18), the “Total cholesterol” value was 5.85 ± 1.15 mmol/L. Further, the “Fasting plasma glucose” value in series [2] (after serine, n = 6, 200 mg/kg/day oral 14 days, mean ± SD, baseline 6.57 ± 1.41, P 0.25) was found to be 6.33 ± 1.41 mmol/L. In addition, the “Plasma triglycerides (TG)” value in series [2] (after serine, n = 6, 200 mg/kg/day oral 14 days, mean ± SD, baseline 6.90 ± 6.65, P 0.13) is on record as 3.63 ± 1.81 mmol/L. Further, in series [2] (after serine, n = 6, 200 mg/kg/day oral 14 days, mean ± SD, baseline 7.33 ± 4.11, P 0.13), the “Bilirubin” value stood at 6.48 ± 3.94 µmol/L. In addition, the “Fasting plasma insulin (FPI)” value in series [2] (after serine, n = 6, 200 mg/kg/day oral 14 days, mean ± SD, baseline 46.3 ± 33.8, P 0.23) is reported as 34.7 ± 25.2 pmol/L. The “γ-Glutamyl transferase (μGT) (U/L)” value in series [2] (after serine, n = 6, 200 mg/kg/day oral 14 days, mean ± SD, baseline 63.8 ± 12.9, P 0.30) is on record as 62.3 ± 16.3 U/L. Moreover, the “Liver fat (%)” value in series [2] (after serine, n = 6, L-serine 200 mg/kg oral once per day for 14 days, mean ± SD, baseline 26.8 ± 6.0, P<0.05) amounted to 20.4 ± 7.0%. Moreover, the “HS (hepatic steatosis) after serine supplementation (change in words)” value in series [2] (magnetic resonance spectroscopy before and after, 200 mg/kg/day oral 14 days) was “significantly decreased”. In series [2] (magnetic resonance spectroscopy, 200 mg/kg/day oral 14 days, six patients), the “HS, response per patient” value is “decreased in all six patients”. Besides, the “Aspartate aminotransferase (AST) (U/L)” value in series [2] (plasma, after serine, n = 6, 200 mg/kg/day oral 14 days, mean ± SD, baseline 34.5 ± 8.10, P<0.05) came to 27.4 ± 8.4 U/L. The “Alanine aminotransferase (ALT) (U/L)” value in series [2] (plasma, after serine, n = 6, 200 mg/kg/day oral 14 days, mean ± SD, baseline 50.8 ± 15.2, P<0.05) was 37.6 ± 5.3 U/L. Further, the “Alkaline phosphatase (ALP) (U/L)” value in series [2] (plasma, after serine, n = 6, 200 mg/kg/day oral 14 days, mean ± SD, baseline 76.3 ± 17.2, P<0.05) is listed as 71.3 ± 17.9 U/L. For the same compound, in series [2] (range over the six NAFLD patients, 200 mg/kg/day oral 14 days), the “Relative decrease in HS” value is 1.0-23%. Besides, the “Tolerability of the supplementation” value in series [2] (~20 g L-serine (200 mg/kg) oral once per day for 14 days, six subjects) is reported as “well tolerated by all the subjects”.

These data come from US11813236B2, “Substances for treatment of fatty liver-related conditions” (SCANDIBIO THERAPEUTICS AB, priority 2016, dated 2023).
